In patent US20080234262A1 (Wyeth, priority 2007, published 2008):
pIC50: −log10 of the molar value.

Tests used:
[1] = target: PI3K (Homo sapiens, UniProt P42336); assay: Fluorescence polarization assay for PI3K; type: biochemical; details: PI3Kα; read-out: PI3Kα IC50;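 note: PI3K kinase reaction on PIP2 with ATP, 30-60 min, product sensed by GST-GRP with red probe in fluorescence polarization (mP), controls without enzyme and at zero time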
[2] = test system: breast line MDA468; assay: In vitro cell culture growth assay (MTS), MDA468; type: cell-based, human; details: Homo sapiens, 72 h, MDA468 cells, three days after drug treatment
Summary of the method: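 Three-day drug treatment starting 1 day post-plating; viable cells quantified via MTS metabolism (A490); effect normalised to in-plate vehicle controls as % growth.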

[3] = test system: prostate line LNCap; assay: In vitro cell culture growth assay (MTS), LNCap; type: cell-based, human; details: Homo sapiens, LNCaP, 72 h, LNCap cells, three days after drug treatment;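 note: viable cell density read by absorbance at 490 nm, growth expressed as percent of vehicle-treated cells on the same plate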

Chain of PI3K (P42336 whole entry): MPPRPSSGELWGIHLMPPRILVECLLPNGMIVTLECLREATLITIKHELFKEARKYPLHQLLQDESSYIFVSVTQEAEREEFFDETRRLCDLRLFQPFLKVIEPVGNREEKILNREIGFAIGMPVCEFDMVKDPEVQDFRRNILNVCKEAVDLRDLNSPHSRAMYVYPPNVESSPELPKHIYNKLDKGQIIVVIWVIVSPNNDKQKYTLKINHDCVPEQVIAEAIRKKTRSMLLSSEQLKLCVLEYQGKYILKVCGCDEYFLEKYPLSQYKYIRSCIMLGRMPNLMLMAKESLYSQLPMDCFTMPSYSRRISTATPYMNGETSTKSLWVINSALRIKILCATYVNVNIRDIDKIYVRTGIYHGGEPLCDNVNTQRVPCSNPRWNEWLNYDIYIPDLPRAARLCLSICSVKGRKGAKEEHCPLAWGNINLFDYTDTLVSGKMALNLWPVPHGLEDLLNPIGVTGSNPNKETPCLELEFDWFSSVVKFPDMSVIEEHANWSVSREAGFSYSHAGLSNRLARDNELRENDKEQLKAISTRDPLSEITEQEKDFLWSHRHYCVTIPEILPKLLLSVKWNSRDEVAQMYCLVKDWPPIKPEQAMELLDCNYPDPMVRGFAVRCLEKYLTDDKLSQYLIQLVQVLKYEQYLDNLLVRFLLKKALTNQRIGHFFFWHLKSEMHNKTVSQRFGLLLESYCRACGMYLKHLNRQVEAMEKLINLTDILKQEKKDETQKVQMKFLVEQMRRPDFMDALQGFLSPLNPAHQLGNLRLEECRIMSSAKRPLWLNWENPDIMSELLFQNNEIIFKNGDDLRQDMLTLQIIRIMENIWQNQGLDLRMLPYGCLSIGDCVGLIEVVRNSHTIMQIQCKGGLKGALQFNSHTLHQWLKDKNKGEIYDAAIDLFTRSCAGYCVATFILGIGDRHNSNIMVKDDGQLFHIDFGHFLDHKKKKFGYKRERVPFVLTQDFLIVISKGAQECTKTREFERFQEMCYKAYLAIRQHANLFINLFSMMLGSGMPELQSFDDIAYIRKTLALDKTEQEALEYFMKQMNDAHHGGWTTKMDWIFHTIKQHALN
Chain of PI3K (P27986 whole entry partner): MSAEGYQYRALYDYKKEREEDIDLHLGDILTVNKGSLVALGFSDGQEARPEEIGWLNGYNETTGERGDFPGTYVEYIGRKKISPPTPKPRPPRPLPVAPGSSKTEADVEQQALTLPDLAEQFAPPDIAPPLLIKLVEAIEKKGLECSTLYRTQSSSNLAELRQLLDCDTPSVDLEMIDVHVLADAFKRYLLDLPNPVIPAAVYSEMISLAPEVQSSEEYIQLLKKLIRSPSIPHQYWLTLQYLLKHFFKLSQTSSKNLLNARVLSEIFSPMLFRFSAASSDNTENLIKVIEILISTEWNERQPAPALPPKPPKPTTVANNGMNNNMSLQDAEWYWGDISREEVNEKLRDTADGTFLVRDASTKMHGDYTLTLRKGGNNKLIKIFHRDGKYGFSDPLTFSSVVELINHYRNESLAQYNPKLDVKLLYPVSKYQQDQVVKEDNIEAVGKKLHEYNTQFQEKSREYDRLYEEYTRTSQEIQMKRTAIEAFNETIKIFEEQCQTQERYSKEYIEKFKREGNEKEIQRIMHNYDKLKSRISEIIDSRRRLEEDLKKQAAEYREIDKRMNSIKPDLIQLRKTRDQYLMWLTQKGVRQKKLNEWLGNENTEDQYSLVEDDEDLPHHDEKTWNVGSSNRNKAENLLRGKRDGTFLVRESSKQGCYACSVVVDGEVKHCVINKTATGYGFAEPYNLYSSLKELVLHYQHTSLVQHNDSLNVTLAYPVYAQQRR

Row | Compound | pIC50 [1] | pIC50 [3] | pIC50 [2]
1 | COC(=O)Nc1ccc(-c2nc(N3CCOCC3)c3cnn(C4CCN(Cc5ccc(F)cc5)CC4)c3n2)cc1 [Compound 450, methyl (4-{1-[1-(4-fluorobenzyl)piperidin-4-yl]-4-morpholin-4-yl-1H-pyrazolo[3,4-d]pyrimidin-6-yl}phenyl)carbamate] | 6.12 | 5.92 | 5.59
2 | CCNC(=NC#N)Nc1ccc(-c2nc(N3CCOCC3)c3cnn(C4CCN(Cc5cccnc5)CC4)c3n2)cc1 [Example 408, 2-cyano-1-ethyl-3-(4-{4-morpholin-4-yl-1-[1-(pyridin-3-ylmethyl)piperidin-4-yl]-1H-pyrazolo[3,4-d]pyrimidin-6-yl}phenyl)guanidine] | 6.04 | 6.05 | 5.49
3 | CCNC(=O)Nc1ccc(-c2nc(N3CCOCC3)c3cnn(C4CCN(C(=O)OC(C)(C)C)CC4)c3n2)cc1 [Compound 764, tert-butyl 4-(6-{4-[(ethylcarbamoyl)amino]phenyl}-4-morpholin-4-yl-1H-pyrazolo[3,4-d]pyrimidin-1-yl)piperidine-1-carboxylate] | 6.13 | 6.94 | 6.43
4 | Cn1ccc2cc(-c3nc(N4CCOCC4)c4cnn(C5CCN(Cc6ccccc6)CC5)c4n3)ccc21 [Compound 89] | 5.28 | 4.82 | 4.70

Stronger by pIC50 [1], values ahead:

Row | pIC50 [1] | pIC50 [3] | Compound | pIC50 [2]
5 | 7.92 | 9.00 | COC(=O)N1CCC(n2ncc3c(N4CCOCC4)nc(-c4ccc(NC(=O)Nc5ccc(CCNCCO)cc5)cc4)nc32)CC1 [Compound 921, methyl 4-[6-(4-{[(4-{2-[(2-hydroxyethyl)amino]ethyl}phenyl)carbamoyl]amino}phenyl)-4-morpholin-4-yl-1H-pyrazolo[3,4-d]pyrimidin-1-yl]piperidine-1-carboxylate] | 6.92
6 | 7.10 | 5.92 | CNC(=O)Nc1ccc(-c2nc(N3CCOCC3)c3cnn(C4CC[S+]([O-])CC4)c3n2)cc1 (stereo not drawn) [Compound 868, 1-methyl-3-{4-[4-morpholin-4-yl-1-(1-oxidotetrahydro-2H-thiopyran-4-yl)-1H-pyrazolo[3,4-d]pyrimidin-6-yl]phenyl}urea] | 6.14
7 | 6.44 | 7.10 | O=C(NCCCO)Nc1ccc(-c2nc(N3CCOCC3)c3cnn(C4CCN(Cc5ccccc5)CC4)c3n2)cc1 [Compound 514, 1-{4-[1-(1-benzylpiperidin-4-yl)-4-morpholin-4-yl-1H-pyrazolo[3,4-d]pyrimidin-6-yl]phenyl}-3-(3-hydroxypropyl)urea] | 6.19
8 | 7.72 | 6.82 | CCOC(=O)N1CCC(n2ncc3c(N4CCOC[C@@H]4C)nc(-c4ccc(NC(=O)Nc5ccccc5)cc4)nc32)CC1 [Compound 896, ethyl 4-(4-[(3S)-3-methylmorpholin-4-yl]-6-{4-[(phenylcarbamoyl)amino]phenyl}-1H-pyrazolo[3,4-d]pyrimidin-1-yl)piperidine-1-carboxylate] | 6.10
9 | 6.32 | 6.00 | CN(C)CC=CC(=O)N1CCC(n2ncc3c(N4CCOCC4)nc(-c4ccc5[nH]ccc5c4)nc32)CC1 [Compound 487, 4-{4-[6-(1H-indol-5-yl)-4-morpholin-4-yl-1H-pyrazolo[3,4-d]pyrimidin-1-yl]piperidin-1-yl}-N,N-dimethyl-4-oxobut-2-en-1-amine] | 5.70
10 | 6.58 | 7.02 | O=C(Nc1ccc(-c2nc(N3CCOCC3)c3cnn(C4CCN(C(=O)c5cccnc5)CC4)c3n2)cc1)Nc1ccccn1 [Example 345, 1-(4-{4-morpholin-4-yl-1-[1-(pyridin-3-ylcarbonyl)piperidin-4-yl]-1H-pyrazolo[3,4-d]pyrimidin-6-yl}phenyl)-3-pyridin-2-ylurea] | 6.15
